Experimental data from BindingDB's records for patent US10112941 (Bristol-Myers Squibb, 2018).

Molecular target: Bromodomain-containing protein 4 (Homo sapiens, UniProt O60885)
Experiment: TR-FRET Assay
Protocol: All assay components were dissolved in buffer composition 20 mM Hepes pH 7.5, 150 mM NaCl, 5 mM DTT, 0.005% Tween 20, and 100 ug/ml BSA for BRD4 (1-477 and 44-460). The final concentrations of the bromodomain proteins are 1.6 nM BRD4(44-168), 1 nM BRD4(333-460), and 1 nM BRD4(1-477 or 44-460), and the fluorescent probe molecule is 100 nM, 50 nM, and 7.5 nM respectively. All proteins were biotinylated. A streptavidin labeled with terbium cryptate (Cisbio SA-Tb) was used as detection, and pre-mixed with the bromodomain protein at a final concentration of 0.2 nM. In some instances for BRD4 (44-460), anti-His terbium cryptate was used as a detection. 7.5 nl of dose-responsed test compound or dmso vehicle (0.0375%) was pre-spotted in a black Corning 384 well plate and 10 ul each of bromodomain/detection reagent and fluorescent small molecule solution were added to the plate, and the reaction incubated for 60 min at room temperature. Plates were then read on EnVision plate reader, (λex=340 nm, acceptor λEm=520 nm, and donor λEm=615 nm, LANCE D400 mirror). Time resolved fluorescence intensity measurements were made at both emissions, and the ratio of acceptor/donor was calculated and used for data analysis.

For `Cc1nnn(C)c1-c1cnc2c3ccc(C(C)(C)O)cc3n([C@@H](c3ccccc3F)C3CCOCC3)c2c1` [US10112941, Example 65], the IC50 was < 5 nM.
